We go through 4 substances from patent publication US20090042809A1, “Blood Pressure Lowering Protein Hydrolysates” (priority 2005, published 2009).

The term IC50 denotes the concentration that gives 50% inhibition.

For data set [1], the target named is ACE (Homo sapiens, UniProt P12821). The settings on record: cited from earlier work; for IC50: Nakamura et al. 1995, Aryoshi 1993, read-out: IC50 values reported earlier for ACE inhibiting peptides; for ACE inhibiting activities reported: in vitro, prior art.
In data set [2] the test system is ACE. The data set can be described thus: at-line ACE inhibition assay (HHL substrate, HPLC read-out). It is filed as biochemical. The settings on record: at-line measurements used in the screening phase. The source says:
The presence of novel ACE inhibiting peptides in CDBAP was investigated by using 2-dimensional-chromatographic-separation combined with an at-line ACE inhibition assay and mass spectrometry for identification. In the first analysis the peptide mixture was separated on an ODS3 liquid chromatography (LC) column and ACE inhibition profiles were generated from the various fractions obtained. In a second analysis the fractions from the first column showing a high ACE inhibition were further separated on a Biosuite LC column using a different gradient profile. The fractions collected from this second column were split into two parts: one part was used for the at-line ACE inhibition measurement while the other part was subjected to MS and MS-MS analysis to identify the peptides present. […]
The 96 well plate was then analysed on a flash-HPLC-column. […] Hippuric acid (H) and HHL were monitored at 280 nm. The peak heights of H and HHL were measured and the ACE inhibition (ACEI) of each fraction was calculated according to the equation:
[formula] • ACEIα Percentage inhibition of the analyte • Dcw Degree of Cleavage by ACE of HHL to H and HL in water • Dca Degree of Cleavage of HHL to H and HL for the analyte The Degree of Cleavage was calculated by expressing the peak height of H as a fraction of the sum of the peak heights of H and HHL.

The subject of data set [3] is ACE. As to the kind of experiment: modified Matsui ACE inhibition assay (Hip-His-Leu, TNBS). The data set is classed as biochemical. Here is the method: To determine the ACE inhibition activity of MAP and ITP, the chemically synthesised tripeptides were assayed according to the method of Matsui et al. (Matsui, T. et al. (1992) Biosci. Biotech. Biochem. 56: 517-518) with some minor modifications.
Each one of the four samples contained 75 μl 3 mM hippuryl histidine leucine (Hip-His-Leu, Sigma Chemicals) dissolved in a 250 mM borate solution containing 200 mM NaCl, pH 8.3. ACE was obtained from Sigma Chemicals. The mixtures were incubated at 37° C. and stopped after 30 min by adding 125 μl 0.5 M HCl. Subsequently, 225 μl bicine/NaOH solution (1 M NaOH: 0.25 M bicine (4:6)) was added, followed by 25 μl 0.1 M TNBS (2,4,6-Trinitrobenzenesulfonic acid, Fluka, Switzerland; in 0.1 M Na2HPO4). After incubation for 20 min. at 37° C., 4 ml 4 mM Na2SO3 in 0.2 M NaH2PO4 was added and the light absorbance at 416 nm was measured with UV/Vis spectrophotometer (Shimadzu UV-1601 with a CPS controller, Netherlands).
The amount of ACE inhibition (ACEI) activity was calculated as a percentage of inhibition compared with the conversion rate of ACE in the absence of an inhibitor according to the following formula:
ACEI (%)=((Control 1−Control 2)−(Sample 1−Sample 2))/(Control 1−Control 2))*100
wherein • Control 1=Absorbance without ACE inhibitory component (=max. ACE activity) [AU]. • Control 2=Absorbance without ACE inhibitory component and without ACE (background) [AU]. • Sample 1=Absorbance in the presence of ACE and the ACE inhibitory component [AU]. • Sample 2=Absorbance in the presence of the ACE inhibitory component, but without ACE [AU].

In data set [4] the test system is spontaneously hypertensive rats. As to conditions: tripeptides from fermented milk (Nakamura et al. 1995); cited from earlier work.
Data set [5] can be described thus: gastrointestinal treatment (GIT) simulating digestion with pepsin and pancreatin. The data set is classed as in vitro ADME, human. How it is done: After consumption, dietary proteins and peptides are exposed to various digestive enzymatic processes in the gastrointestinal tract. In order to assess the stability of the newly identified bioactive peptides in the human gastrointestinal tract, the CDBAP preparation (prepared as described in Example 7) was subjected to a gastrointestinal treatment (GIT) simulating the digestive conditions typically found in the human body. Samples obtained after various incubation times in the GIT model system were analysed using the on-line HPLC-Bioassay-MS or HRS-MS system to quantify any residual MAP and ITP peptides. The GIT procedure was performed in a standardized mixing device incorporating a 100 ml flask (as supplied by Vankel, US). The temperature of the water bath was set to 37.5° C. and the paddle speed was chosen such that the sample was kept in suspension (100 rpm).
About 3.4 grams of CDBAP (protein level of approx 60%) was dissolved/suspended in 100 ml Milli-Q water. During gastric simulation 5 M HCl was used to decrease the pH. At the end of gastric simulation and during the duodenal phase 5 M NaOH was used to raise the pH.
The CDBAP suspension was preheated to 37.5° C. and 5 ml of the suspension was removed to dissolve 0.31 g of pepsin (Fluka order no. 77161). At t=0 min the 5 ml with the now dissolved pepsin was added back to the suspension. Then the pH of the CDBAP suspension was adjusted slowly by hand using a separate pH meter according to the following scheme:
t=20 min pH decreased to 3.5 t=40 min pH to 3.0 t=50 min pH to 2.3 t=60 min pH to 1.8 t=65 min pH raised to 2.7 t=75 min pH to 3.7 t=80 min pH to 5.3 […]
Then the samples were transferred into a beaker and were placed in a microwave till boiling. […] The total N concentration of the powder as obtained was determined and converted to protein level using the Kjeldahl factor of casein (6.38). […] The levels of MAP and ITP surviving the proteolytic treatment according to the GIT procedure were determined as described in Example 7 and the data obtained are shown in Table 10.

The mark [6] stands for this setting: as restated in the description, read-out: IC50 value in the Modified Matsui test.

“Also recorded” adds a separate entry of the source.

Sequence of ACE (Homo sapiens, UniProt P12821) (P12821 30-1306, species assumed): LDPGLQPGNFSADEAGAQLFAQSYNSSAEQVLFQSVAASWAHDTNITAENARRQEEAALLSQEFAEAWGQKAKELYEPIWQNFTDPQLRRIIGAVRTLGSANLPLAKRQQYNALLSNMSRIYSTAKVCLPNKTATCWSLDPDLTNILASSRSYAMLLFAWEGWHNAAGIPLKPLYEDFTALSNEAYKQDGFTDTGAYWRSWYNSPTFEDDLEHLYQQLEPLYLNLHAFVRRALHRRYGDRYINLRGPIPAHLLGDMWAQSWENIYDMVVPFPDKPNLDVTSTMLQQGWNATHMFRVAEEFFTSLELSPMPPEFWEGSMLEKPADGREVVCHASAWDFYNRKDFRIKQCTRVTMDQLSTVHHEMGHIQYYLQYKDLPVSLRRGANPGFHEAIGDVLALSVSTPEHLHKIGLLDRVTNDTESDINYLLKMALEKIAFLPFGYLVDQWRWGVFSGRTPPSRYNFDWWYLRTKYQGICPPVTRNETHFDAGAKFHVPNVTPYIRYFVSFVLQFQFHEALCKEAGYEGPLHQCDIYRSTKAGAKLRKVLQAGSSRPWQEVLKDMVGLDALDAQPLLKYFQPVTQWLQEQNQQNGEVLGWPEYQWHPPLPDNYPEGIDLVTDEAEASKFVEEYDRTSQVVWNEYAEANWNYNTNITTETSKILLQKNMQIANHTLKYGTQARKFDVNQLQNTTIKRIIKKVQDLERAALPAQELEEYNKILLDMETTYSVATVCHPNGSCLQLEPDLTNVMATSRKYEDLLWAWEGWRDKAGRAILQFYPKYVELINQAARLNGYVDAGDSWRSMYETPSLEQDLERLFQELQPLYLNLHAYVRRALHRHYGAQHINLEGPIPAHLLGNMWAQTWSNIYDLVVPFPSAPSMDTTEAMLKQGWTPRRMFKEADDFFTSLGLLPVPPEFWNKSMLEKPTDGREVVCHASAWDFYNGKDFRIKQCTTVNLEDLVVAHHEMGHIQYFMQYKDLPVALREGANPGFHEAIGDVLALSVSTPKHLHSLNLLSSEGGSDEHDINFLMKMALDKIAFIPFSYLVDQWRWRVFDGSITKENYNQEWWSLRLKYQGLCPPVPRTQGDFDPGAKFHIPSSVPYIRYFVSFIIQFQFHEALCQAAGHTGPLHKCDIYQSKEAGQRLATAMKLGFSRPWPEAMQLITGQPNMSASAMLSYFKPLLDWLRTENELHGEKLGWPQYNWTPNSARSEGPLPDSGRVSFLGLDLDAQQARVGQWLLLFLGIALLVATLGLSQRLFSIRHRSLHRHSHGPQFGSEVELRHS

Leu-Pro-Pro [LPP]: at ACE [1], the IC50 is 9.6 µM and the “ACE inhibiting activities reported” value is on record as “Strong ACE inhibiting activities”.
Ile-Pro-Pro (IPP): the figures for the IC50 with ACE [2], in the data set with ACE [3] (setting [6]) and in the data set with ACE [1] were 7.1 µM, 2 µM and 5 µM, respectively. The “ACE inhibiting activities reported” value in the data set with ACE [1] is given as “Strong ACE inhibiting activities”. For the same substance, the antihypertensive effects entry in data set [4] was “confirmed”.
Val-Pro-Pro [VPP]: at ACE [1], the “ACE inhibiting activities reported” value is “Strong ACE inhibiting activities”. Also, the antihypertensive effects entry in data set [4] is on record as “confirmed”.
Take Ile-Thr-Pro (ITP): the half-maximal inhibitory concentration (IC50) in the data set with ACE [2] is 50 µM; with ACE [3] (setting [6]), 10 µM; in the data set with ACE [3] (chemically synthesized tripeptides, read-out: IC50 value, Modified Matsui assay), 10 µM. In data set [5] (CDBAP (Example 7), before passage), the “Concentration of tripeptide in CDBAP before GIT procedure” value was 903.7 μg g^−1 powder. In addition, in data set [5] (CDBAP after GIT, pepsin then pancreatin, 125 min, 37.5° C.), the “Concentration of tripeptide in CDBAP after GIT procedure” value is listed as 889.1 μg g^−1 powder. In addition, the “resistance against GIT digestion” value in data set [5] (simulated gastro-intestinal digestion) is listed as “high resistance; also recorded: resist gastrointestinal proteolytic degradation; also recorded: survive”.
